In US11903962B1, “Isoxazoline complexes and compositions thereof” (priority 2023, dated 2024):

Legend:
[1] = room temperature, various compositions; cited from earlier work
[2] = Water solubility of cyclodextrin complexes with or without polysorbate 80 / polypowder; assay type: physicochemical; details: aqueous with cosolvent or surfactant or cyclodextrin, complexed with hpbcd, read-out: solubility when complexed with hpbcd

| solubility [2] [µg/mL] | SMILES | degradation by water [1] [h] |
| --- | --- | --- |
|  | Cc1cc(C2=NOC(c3cc(Cl)cc(Cl)c3)(C(F)(F)F)C2)ccc1C(=O)NCC(=O)NCC(F)(F)F (centres unmarked) [Fluralaner, 4-[5-(3,5-dichlorophenyl)-5-trifluoromethyl-4,5-dihydroisoxazol-3-yl]-2-methyl-N-[(2,2,2-trifluoro-ethylcarbamoyl)-methyl]-benzamide] | ≤ 48 |
| > 10000 | O=C(NN1C(=O)[C@@H]2[C@@H]3C=C[C@@H]([C@H]4C[C@@H]34)[C@@H]2C1=O)c1ccc(C(F)(F)F)cc1 [tecovirimat] |  |
